# Assays:
# [1] = target: T1, chymotrypsin-like proteasome activity in packed whole blood lysate (Mus musculus, UniProt O55234); test: Whole blood proteasome activity (packed whole blood lysate, PWBL) of treated mice; type: in vivo
# T1 construct: The supernatant (Packed Whole Blood Lysate, PWBL) was transferred to a fresh tube; from tissue; host or cells: packed whole blood cells of Swiss-Webster mice, hypotonic lysate
# Description: In brief, frozen whole blood samples were thawed on ice for one hour, and resuspended in 700 μL of ice cold 5 mM EDTA, pH 8.0 in order to lyse the cells by hypotonic shock. This represents approximately 2-3 times the volume of the packed whole blood cells. Lysis was allowed to proceed for one hour, and the cellular debris was removed by centrifuigation at 14,000×g for 10 minutes. The supernatant (Packed Whole Blood Lysate, PWBL) was transferred to a fresh tube, and the pellet discarded. Protein concentration of the PWBL was determined by BCA assay (Pierce) using BSA as a standard.
# Proteasome activity was determined by measuring the hydrolysis of a fluorogenic substrate specific for the chymotrypsin-like activity of proteasomes (suc-LLVY-AMC, Bachem Cat. 1-1395). […] Hydrolysis of the substrate results in the release of free AMC, which was measured fluorometrically by using λex=390 nm and λem=460 nm. The rate of hydrolysis in this system is linear for at least one hour. The hydrolysis rate of each sample is then normalized to relative fluorescent units per milligram of protein (RFU/mg).
# The vehicle control consisted of 2% DMSO in 10% solutol. […] Packed whole blood cells were collected by centrifugation, washed with PBS, and re-centrifuged. All samples were stored at −80° C. prior to the evaluation of the proteasome activity. […]
# [2] = system: PARP and Pro-Caspase 3 cleavage in PC-3 cells; test: Cleavage of PARP and Pro-Caspase 3 (western blot), PC-3; type: cell-based, human; details: 100 nM, 0, 8 or 24 hours
# Description: Total protein lysates were made and 20 μg of the lysates were then resolved under reducing/denaturing conditions and blotted onto nitrocellulose. The blots were then probed with anti-PARP or anti-caspase 3 antibodies followed by stripping and reprobing with an anti-actin antibody.
# T1 sequence (O55234 60-264): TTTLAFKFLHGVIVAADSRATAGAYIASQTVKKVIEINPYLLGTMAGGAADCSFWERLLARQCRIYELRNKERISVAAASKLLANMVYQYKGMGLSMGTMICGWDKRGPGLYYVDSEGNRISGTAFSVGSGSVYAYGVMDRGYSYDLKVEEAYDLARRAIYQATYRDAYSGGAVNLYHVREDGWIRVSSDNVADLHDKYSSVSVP
compound,measurement,setting,value
"C[C@@]12OC(=O)[C@]1([C@@H](O)[C@@H]1C=CCCC1)NC(=O)[C@@H]2CCCl [Formula II-16, Salinosporamide A]",proteasomal activity in PWBL,"[1]; male Swiss-Webster mice, i.v. or oral, 90 minutes after administration (FIG. 40)",profound decrease in proteasomal activity in PWBL
same,inhibition at […],"[1]; mouse, iv, 0.25 mg/kg i.v., mice, read-out: ex vivo proteasome inhibition in packed whole blood",94 ± 3%
same,cleavage of PARP,[2],noticeable at 24 hours
same,cleavage of Pro-Caspase 3,[2],not detected

# Source: US20050049294A1, “Methods of using [3.2.0] heterocyclic compounds and analogs thereof” (priority 2003, published 2005)
